Experiments:
LNCap tumor cells = assay: tissue biodistribution study in LNCap xenograft mice; assay type: in vivo; details: 177Lu complex; for concentration in kidneys versus LNCap tumor cells: 4 hours post administration; for concentration in LNCap tumor cells versus kidney: 24 hours and 96 hours post administration; for change of concentration in kidney: later time intervals (24 and 96 hours)
Method: FIG. 2 is a graph of the tissue biodistribution of a ^111In analog of the compound of Example 3, in LNCap Xenograft mice.
FIGS. 1A and 1B illustrate results of a bio-distribution study in LNCap xenograft mice of a GUG-DOTA-^177Lu complex (compound (A)) and a GUL-DOTA-^177Lu complex (compound (B)) according to Formula II.
In contrast, the inventive compounds accumulate within tumor cells with only a slight decrease in intratumoral concentration observed after 96 hours.
FIG. 2 illustrates results of a bio-distribution study in LNCap xenograft mice using a GUL-DOTA-^111In complex and a hydrophobic aminohexanoic acid linker. […] The inventors hypothesize that the low biodistribution of MIP-1450 LNCap tumor cells may be due to this compounds low affinity for PSMA expressed on the surface of LNCap cells. As stated above, it was unexpectedly that presence of carboxylic acid groups in the linker region increased affinity of Formula I compounds for PSMA. This increase in binding affinity is due, at least in part to additional cooperative binding interactions of the free carboxylic acid groups with amino acid residues of PSMA. Illustrative of Formula I compound-radionuclide complexes that have one or more carboxylic acid groups as part of the linker group include without limitation the following compounds: […]

PSMA = biological target: T1, PSMA (Homo sapiens, UniProt Q04609); assay: competitive binding assay against 123I-DCIT in PSMA positive LNCaP cells; details: Lu complexes; competition with 3 nM 123I DCIT on LNCaP cells, 1 hour at room temperature
T1 construct: host or cells: LNCaP human prostate cancer cells
T1 sequence (Q04609 whole entry): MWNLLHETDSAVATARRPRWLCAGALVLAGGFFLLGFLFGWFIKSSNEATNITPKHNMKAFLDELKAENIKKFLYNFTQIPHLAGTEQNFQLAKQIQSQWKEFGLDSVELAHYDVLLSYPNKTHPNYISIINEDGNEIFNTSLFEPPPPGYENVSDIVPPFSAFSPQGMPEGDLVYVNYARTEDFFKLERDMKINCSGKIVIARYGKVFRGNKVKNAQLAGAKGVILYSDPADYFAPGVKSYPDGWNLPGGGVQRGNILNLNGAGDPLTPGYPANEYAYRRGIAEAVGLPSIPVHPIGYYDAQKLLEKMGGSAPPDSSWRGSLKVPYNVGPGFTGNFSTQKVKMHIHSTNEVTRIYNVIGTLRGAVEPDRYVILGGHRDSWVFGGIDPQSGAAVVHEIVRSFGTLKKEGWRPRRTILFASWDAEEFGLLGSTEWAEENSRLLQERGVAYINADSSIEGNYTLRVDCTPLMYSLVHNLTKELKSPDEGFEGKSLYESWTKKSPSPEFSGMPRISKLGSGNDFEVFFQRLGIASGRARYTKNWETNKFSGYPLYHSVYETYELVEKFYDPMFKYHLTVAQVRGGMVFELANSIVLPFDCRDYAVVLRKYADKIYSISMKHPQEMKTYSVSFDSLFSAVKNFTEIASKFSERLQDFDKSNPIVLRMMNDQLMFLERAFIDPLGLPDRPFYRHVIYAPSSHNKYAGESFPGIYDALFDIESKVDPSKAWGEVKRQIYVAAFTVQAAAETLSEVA
Method: The compounds of Formula I or Formula II were screened in a human prostate cancer cell binding assay using PSMA positive (+), LnCap cells.
Briefly, LNCaP and PC3 human prostate cancer cells were obtained from American Type Culture Collection, Rockville, Md. LNCaP cells were maintained in RPMI-1640 medium supplemented with 10% fetal bovine serum (FBS). Binding of the radiolabeled compound and competition with cold derivatives to LNCaP cells was performed according to published methods. Cells were plated in 12-well plates at approximately 4×10^5 cells/well and incubated for 48 hours in a humidified incubator at 37° C./5% carbon dioxide prior to addition of compound. Solutions of the Formula I or Formula II compounds were prepared and diluted in serum-free cell culture medium containing 0.5% bovine serum albumin (BSA) in combination with 3 nM ^123I DCIT (known inhibitor). Total binding was determined by incubating ^123I-DCIT without test compound. Plates were incubated at room temperature for 1 hour. Cells were removed from the plates and transferred to eppendorff tubes. Samples were microcentrifuged for 15 seconds at 10K×g. The medium was aspirated and the pellet was washed twice by dispersal in fresh assay medium followed by microcentrifugation. Cell binding of ^123I DCIT was determined by counting the cell pellet in an automated gamma counter. Nonspecific binding was determined as the counts associated with the cells after incubating with 2 uM nonradiolabeled compound or 2-phosphonomethyl-pentanedioic acid (PMPA). Table 3 illustrates the IC50 values of representative Formula II complexes.

Molecule	IC50 (PSMA)	also measured
O=C(O)CC[C@H](NC(=O)N[C@@H](CCCCNC(=O)[C@H](Cc1ccc2ccccc2c1)NC(=O)CCCCCNC(=S)Nc1ccc(CC2CN(CC(=O)O)CCN(CC(=O)O)CCN(CC(=O)O)CCN2CC(=O)O)cc1)C(=O)O)C(=O)O.[177Lu] (stereo partly drawn) [B, ^177Lu-complex of (10S,17S,21S)-10-(naphthalen-2-ylmethyl)-8,11,19-trioxo-1-((4-((1,4,7,10-tetrakis(carboxymethyl)-1,4,7,10-tetraazacyclododecan-2-yl)methyl)phenyl)amino)-1-thioxo-2,9,12,18,20-pentaazatricosane-17,21,23-tricarboxylic acid]	–	concentration in kidneys versus LNCap tumor cells (LNCap tumor cells): concentrate to a greater extent in the kidneys than LNCap tumor cells; concentration in LNCap tumor cells versus kidney (LNCap tumor cells): the concentration is greater in LNCap tumor cells than kidney; change of concentration in kidney (LNCap tumor cells): significant reduction
(10S,13S,20S,24S)-13-(2-carboxyethyl)-10-(4-fluorobenzyl)-8,11,14,22-tetraoxo-1-((4-((1,4,7,10-tetrakis(carboxymethyl)-1,4,7,10-tetraazacyclododecan-2-yl)methyl)phenyl)amino)-1-thioxo-2,9,12,15,21,23-hexaazahexacosane-20,24,26-tricarboxylate Lu complex [Lu-MIP-1550]	0.022 µM	–
(10S,17S,21S)-10-(4-fluorobenzyl)-8,11,19-trioxo-1-((4-((1,4,7,10-tetrakis(carboxymethyl)-1,4,7,10-tetraazacyclododecan-2-yl)methyl)phenyl)amino)-1-thioxo-2,9,12,18,20-pentaazatricosane-17,21,23-tricarboxylate Lu complex [Lu-MIP-1546]	0.015 µM	–
(10S,17S,21S)-10-(naphthalen-2-ylmethyl)-8,11,19-trioxo-1-((4-((1,4,7,10-tetrakis(carboxymethyl)-1,4,7,10-tetraazacyclododecan-2-yl)methyl)phenyl)amino)-1-thioxo-2,9,12,18,20-pentaazatricosane-17,21,23-tricarboxylate Lu complex [Lu-MIP-1545]	0.01 µM	–
(10S,17S,21S)-10-benzyl-8,11,19-trioxo-1-((4-((1,4,7,10-tetrakis(carboxymethyl)-1,4,7,10-tetraazacyclododecan-2-yl)methyl)phenyl)amino)-1-thioxo-2,9,12,18,20-pentaazatricosane-17,21,23-tricarboxylate-Lu complex [Lu-MIP-1530]	0.021 µM	–
(11S,16S,20S)-11-(2-carboxyethyl)-10,13,18-trioxo-1-((4-((1,4,7,10-tetrakis(carboxymethyl)-1,4,7,10-tetraazacyclododecan-2-yl)methyl)phenyl)amino)-1-thioxo-2,9,12,17,19-pentaazadocosane-16,20,22-tricarboxylate Lu complex [Lu-MIP-1519]	0.012 µM	–
(11S,16S,20S)-11-benzyl-10,13,18-trioxo-1-((4-((1,4,7,10-tetrakis(carboxymethyl)-1,4,7,10-tetraazacyclododecan-2-yl)methyl)phenyl)amino)-1-thioxo-2,9,12,17,19-pentaazadocosane-16,20,22-tricarboxylate Lu complex [Lu-MIP-1548]	0.077 µM	–
^177Lu-complex of (11S,16S,20S)-11-(2-carboxyethyl)-10,13,18-trioxo-1-((4-((1,4,7,10-tetrakis(carboxymethyl)-1,4,7,10-tetraazacyclododecan-2-yl)methyl)phenyl)amino)-1-thioxo-2,9,12,17,19-pentaazadocosane-16,20,22-tricarboxylate	–	concentration in kidneys versus LNCap tumor cells (LNCap tumor cells): concentrate to a greater extent in the kidneys than LNCap tumor cells; concentration in LNCap tumor cells versus kidney (LNCap tumor cells): the concentration is greater in LNCap tumor cells than kidney; change of concentration in kidney (LNCap tumor cells): significant reduction

Further lines, with some results ahead:

IC50 (PSMA)	Molecule	also measured
0.028 µM	(3S,7S,14S,17S)-14-benzyl-5,13,16-trioxo-17-(6-(3-(4-((S)-1,4,7,10-tetrakis(carboxymethyl)-1,4,7,10-tetraazacyclododecan-2-yl)methyl)phenyl)thioureido)hexanamido)-4,6,12,15-tetraazanonadecane-1,3,7,19-tetracarboxylate Lu complex [Lu-MIP-1531]	–
0.054 µM	(10S,17S,21S)-10-(2-carboxyethyl)-8,11,19-trioxo-1-((4-((1,4,7,10-tetrakis(carboxymethyl)-1,4,7,10-tetraazacyclododecan-2-yl)methyl)phenyl)amino)-1-thioxo-2,9,12,18,20-pentaazatricosane-17,21,23-tricarboxylate Lu complex [Lu-MIP-1523]	–
0.078 µM	(13S,17S)-10,15-dioxo-1-((4-((1,4,7,10-tetrakis(carboxymethyl)-1,4,7,10-tetraazacyclododecan-2-yl)methyl)phenyl)amino)-1-thioxo-2,9,14,16-tetraazanonadecane-13,17,19-tricarboxylate Lu complex [Lu-MIP-1526]	–
0.023 µM	(16S,20S)-10,18-dioxo-1-((4-((1,4,7,10-tetrakis(carboxymethyl)-1,4,7,10-tetraazacyclododecan-2-yl)methyl)phenyl)amino)-1-thioxo-2,11,17,19-tetraazadocosane-16,20,22-tricarboxylate Lu complex [Lu-MIP-1512]	–

Reference: patent US8926944B2, “Radiolabeled prostate specific membrane antigen inhibitors” (Molecular Insight Pharmaceuticals, priority 2011, dated 2015)
